From patent EP0391169A2, “Enantiomeric pure 7-(3-amino-1-pyrrolidinyl)-chinolon-and-naphthyridon carboxylic acids” (BAYER AG, priority 1989, dated 1990) come the findings set out here.

Molecules are shown by their SMILES. ≈ marks a conversion by molar mass, not a printed value. Counter-ions that a name gives are not always drawn.

Common to all, as to assay: MIC agar dilution test (Denley Multipoint Inoculator; Iso-Sensitest agar)
Format in all cases: cell-based
For orientation: Agar dilution tests growth on a series of plates holding different concentrations.

Assay [1] relates to Providencia stuartei. The note with it: Providencia stuartei (strain number not given), 37° C, ca. 20 h, read-out: MHK-Werte. From the text: (§1) Die minimalen Hemmkonzentrationen (MHK) wurden per Reihenverdünnungsverfahren auf Iso-Sensitest Agar (Oxoid) bestimmt. Für jede Prüfsubstanz wurde eine Reihe von Agarplatten hergestellt, die bei jeweils doppelter Verdünnung abfallende Konzentrationen des Wirkstoffes enthielten. Die Agarplatten wurden mit einem Multipoint-Inokulator (Denley) beimpft. Zum Beimpfen wurden Übernachtkulturen der Erreger verwandt, die zuvor so verdünnt wurden, daß jeder Impfpunkt ca. 10^4 koloniebildende Partikel enthielt. Die beimpften Agarplatten wurden bei 37° C bebrütet, und das Keimwachstum wurde nach ca. 20 Stunden abgelesen. Der MHK-Wert (µg/ml) gibt die niedrigste Wirkstoffkonzentration an, bei der mit bloßem Auge kein Keimwachstum zu erkennen war.
(§2) In der nachfolgenden Tabelle sind die MHK-Werte einiger der erfindungsgemäßen Verbindungen im Vergleich zum entsprechenden Racemat aufgeführt: […]

Assay [2] concerns Pseudomonas aerog. Ellsworth. Particulars: 37° C, ca. 20 h, read-out: MHK-Werte.
Text: as §1, §2

Assay [3] has as its system Proteus mir. 8175. The note with it: 37° C, ca. 20 h, read-out: MHK-Werte.
Text: as §1, §2

The subject of assay [4] is E. coli A261. The note with it: Escherichia coli, 37° C, ca. 20 h, read-out: MHK-Werte.
Text: as §1, §2

In assay [5] the test system is Pseudomonas aerog. Walter. The note with it: 37° C, ca. 20 h, read-out: MHK-Werte.
Text: as §1, §2

Assay [6] deals with Staph. aurens FK 422. The note with it: 37° C, ca. 20 h, read-out: MHK-Werte.
Text: as §1, §2

Assay [7] concerns Staph. aurens 133. Particulars: 37° C, ca. 20 h, read-out: MHK-Werte.
Text: as §1, §2

In assay [8] the test system is Proteus mir. 8223. Particulars: 37° C, ca. 20 h, read-out: MHK-Werte.
Text: as §1, §2

Assay [9] relates to Morg. morg. 11006. The note with it: 37° C, ca. 20 h, read-out: MHK-Werte.
Text: as §1, §2

In assay [10] the test system is Staph. aurens 1756. Particulars: 37° C, ca. 20 h, read-out: MHK-Werte.
Text: as §1, §2

Assay [11] deals with Proteus vulg. 1017. Particulars: 37° C, ca. 20 h, read-out: MHK-Werte.
Text: as §1, §2

Assay [12] deals with Klebsiella pneum. 8085. Particulars: 37° C, ca. 20 h, read-out: MHK-Werte.
Text: as §1, §2

The test system of assay [13] is Enteroc. faecalis 27101. Particulars: 37° C, ca. 20 h, read-out: MHK-Werte.
Text: as §1, §2

Assay [14] has as its system Morg. morg. 932. The note with it: 37° C, ca. 20 h, read-out: MHK-Werte.
Text: as §1, §2

The subject of assay [15] is Klebsiella pneum. 63. The note with it: 37° C, ca. 20 h, read-out: MHK-Werte.
Text: as §1, §2

Assay [16] deals with E. coli Neumann. Particulars: Escherichia coli, 37° C, ca. 20 h, read-out: MHK-Werte.
Text: as §1, §2

The test system of assay [17] is Enteroc. faecalis 9790. Particulars: 37° C, ca. 20 h, read-out: MHK-Werte.
Text: as §1, §2

Assay [18] relates to E. coli 455/7. The note with it: Escherichia coli, 37° C, ca. 20 h, read-out: MHK-Werte.
Text: as §1, §2

In assay [19] the test system is Serrratia marcescene 16040. Particulars: 37° C, ca. 20 h, read-out: MHK-Werte.
Text: as §1, §2

The subject of assay [20] is Providencia stuartei 12052. Particulars: 37° C, ca. 20 h, read-out: MHK-Werte.
Text: as §1, §2

Regarding `N[C@H]1CCN(c2c(F)cc3c(=O)c(C(=O)O)cn(C4CC4)c3c2Cl)C1` [Beispiel 1, 7-[S-(3-Amino)-1-pyrrolidinyl]-8-chlor-1-cyclopropyl-6-fluor-1,4-dihydro-4-oxo-3-chinolincarbonsäure-Hydrochlorid], the MIC in assay [1] was found to be 0.0019 µg/mL; in [2], 0.03 µg/mL; in assay [3], 0.0078 µg/mL; in assay [4], 0.0009 µg/mL; in assay [5], 0.03 µg/mL; in assay [6], 0.0078 µg/mL. The MIC is 0.0078 µg/mL in [7]; 0.25 µg/mL in assay [8]; 0.0039 µg/mL in assay [9]; 0.0078 µg/mL in assay [10]; not above 0.0004 µg/mL in assay [11]; 0.0039 µg/mL in assay [12]. Besides, the MIC in assay [13] is 0.03 µg/mL; in assay [14] it was 0.0019 µg/mL; in assay [15], 0.0039 µg/mL; in [16], not above 0.0004 µg/mL; in assay [17] it was 0.03 µg/mL.
Turning to `Cc1c(F)c(N2CC[C@H](N)C2)cc2c1c(=O)c(C(=O)O)cn2C1CC1` [Beispiel 5, 7-[S-(3-Amino)-1-pyrrolidinyl]-1-cyclopropyl-6-fluor-1,4-dihydro-5-methyl-4-oxo-3-chinolincarbonsäure-Hydrochlorid], the MIC stood at 0.25 µg/mL in assay [2]; 2 µg/mL in [18]; 0.5 µg/mL in assay [5]; 4 µg/mL in assay [8]; 2 µg/mL in assay [19]; 4 µg/mL in [20]. Further, the MIC in assay [17] came to 0.25 µg/mL.
Consider `Cc1c(F)c(N2CC[C@@H](N)C2)cc2c1c(=O)c(C(=O)O)cn2C1CC1` [Beispiel 6, 7-[R-(3-Amino)-1-pyrrolidinyl]-1-cyclopropyl-6-fluor-1,4-dihydro-5-methyl-4-oxo-3-chinolincarbonsäure-Hydrochlorid], for which the MIC in assay [2] turned out to be 1 µg/mL; in assay [3], 0.5 µg/mL; in assay [18], 8 µg/mL; in assay [5], 2 µg/mL; in assay [8] it was 8 µg/mL; in [19], 4 µg/mL. The MIC was 8 µg/mL in assay [20], 1 µg/mL in [13] and 2 µg/mL in assay [17].
As for `N[C@@H]1CCN(c2c(F)cc3c(=O)c(C(=O)O)cn(C4CC4)c3c2F)C1` [Beispiel 4, 7-[R-(3-Amino)-1-pyrrolidinyl]-1-cyclopropyl-6,8-difluor-1,4-dihydro-4-oxo-3-chinolincarbonsäure-Hydrochlorid], the MIC in [1] came to 0.0015 µg/mL; in assay [18], 0.5 µg/mL; in assay [4], 0.0078 µg/mL; in [5], 0.25 µg/mL; in assay [8], 0.5 µg/mL; in [11], 0.0078 µg/mL. In addition, the MIC worked out at 1 µg/mL in assay [19], 0.5 µg/mL in assay [20], 0.0078 µg/mL in [14] and 0.0078 µg/mL in assay [16].
For the compound `N[C@@H]1CCN(c2c(F)cc3c(=O)c(C(=O)O)cn(C4CC4)c3c2Cl)C1` [Beispiel 2, 7-[R-(3-Amino)-1-pyrrolidinyl]-8-chlor-1-cyclopropyl-6-fluor-1,4-dihydro-4-oxo-3-chinolincarbonsäure -Hydrochlorid], the MIC was 0.0078 µg/mL in [1]; 0.06 µg/mL in assay [2]; 0.15 µg/mL in assay [3]; 0.25 µg/mL in [18]; 0.0039 µg/mL in assay [4]; 0.06 µg/mL in assay [5]. The MIC in assay [8] is 0.25 µg/mL; in [9], 0.0078 µg/mL; in [11], 0.0019 µg/mL; in [19], 0.25 µg/mL; in assay [20], 0.25 µg/mL; in assay [12], 0.0078 µg/mL. For the same compound, the MIC in [13] was 0.03 µg/mL; in assay [14] it was 0.0039 µg/mL; in [15], 0.0078 µg/mL; in assay [16], 0.0019 µg/mL; in assay [17] it was 0.06 µg/mL.
Consider `NC1CCN(c2c(F)cc3c(=O)c(C(=O)O)cn(C4CC4)c3c2Cl)C1` (racemic) [*), 7-(3-Amino-1-pyrrolidinyl)-8-chlor-1-cyclopropyl-6-fluor-1,4-dihydro-4-oxo-3-chinolincarbonsäure, reference compound], for which the MIC was found to be 0.0039 µg/mL (≈ 0.0107 µM) in [1]; 0.03 µg/mL (≈ 0.082 µM) in [2]; 0.0078 µg/mL (≈ 0.0213 µM) in assay [3]; 0.0019 µg/mL (≈ 0.00519 µM) in assay [4]; 0.06 µg/mL (≈ 0.164 µM) in assay [5]; 0.25 µg/mL (≈ 0.683 µM) in assay [8]. For the same compound, the MIC came to 0.0078 µg/mL (≈ 0.0213 µM) in assay [9]; 0.0019 µg/mL (≈ 0.00519 µM) in assay [11]; 0.25 µg/mL (≈ 0.683 µM) in assay [19]; 0.0039 µg/mL (≈ 0.0107 µM) in assay [12]; 0.03 µg/mL (≈ 0.082 µM) in assay [13]; 0.0019 µg/mL (≈ 0.00519 µM) in [14]. In addition, the MIC worked out at 0.0039 µg/mL (≈ 0.0107 µM) in assay [15], 0.0019 µg/mL (≈ 0.00519 µM) in [16] and 0.03 µg/mL (≈ 0.082 µM) in assay [17].
Consider `NC1CCN(c2c(F)cc3c(=O)c(C(=O)O)cn(C4CC4)c3c2F)C1` (racemic) [**), 7-(3-Amino-1-pyrrolidinyl)-6,8-difluor-1-cyclopropyl-1,4-dihydro-4-oxo-chinolincarbonsäure, reference compound], for which the MIC in assay [1] was 0.0078 µg/mL (≈ 0.0223 µM); in assay [18] it was 0.25 µg/mL (≈ 0.716 µM); in [4], 0.0039 µg/mL (≈ 0.0112 µM); in assay [8], 0.5 µg/mL (≈ 1.43 µM); in assay [9] it was 0.0078 µg/mL (≈ 0.0223 µM); in assay [11], 0.0039 µg/mL (≈ 0.0112 µM). Also, the MIC is 0.5 µg/mL (≈ 1.43 µM) in assay [19]; 0.25 µg/mL (≈ 0.716 µM) in [20]; 0.0078 µg/mL (≈ 0.0223 µM) in assay [12]; 0.0039 µg/mL (≈ 0.0112 µM) in [14]; 0.0078 µg/mL (≈ 0.0223 µM) in assay [15]; 0.0039 µg/mL (≈ 0.0112 µM) in [16].
Regarding `N[C@H]1CCN(c2c(F)cc3c(=O)c(C(=O)O)cn(C4CC4)c3c2F)C1` [Beispiel 3, 7-[S-(3-Amino)-1-pyrrolidinyl]-1-cyclopropyl-6,8-difluor-1,4-dihydro-4-oxo-3-chinolincarbonsäure-Hydrochlorid], the MIC in [1] came out at 0.0078 µg/mL; in assay [2], 0.62 µg/mL; in assay [18] it was 0.25 µg/mL; in [4], 0.0039 µg/mL; in assay [8], 0.25 µg/mL; in assay [9], 0.0078 µg/mL. Further, the MIC turned out to be 0.0039 µg/mL in assay [11]; 0.25 µg/mL in assay [19]; 0.25 µg/mL in assay [20]; 0.0078 µg/mL in [12]; 0.0039 µg/mL in assay [14]; 0.0078 µg/mL in [15]. In assay [16], the MIC turned out to be 0.0039 µg/mL.
